Experiments:
[1] = target: Human intrinsic factor (Human IF) (Homo sapiens, UniProt P27352); test: Radioisotope dilution (RID) radiobinding assay for vitamin B12, Human IF binder; assay type: binding; details: 500 pg added to human serum in the dark, 15 min incubation, standard extraction
Experimental: (§1) Each of the RID assays referred to herein utilized the components referred to above. That is, components A, B, C, etc. or the buffer, albumin, and salt, respectively, etc. were added in the order, from left to right, shown in Table 1.
(§2) After the addition of ^57 Co-B12 the components are mixed thoroughly to mix both the naturally occurring B12 and the radioisotope B12 to make them compete and equally available to react with the binder. After the addition of the binder, H, the components were again mixed thoroughly, and then incubated for 45 minutes at about 37° C. Charcoal was then added to the incubated mixture and the components again mixed thoroughly and incubated for another 5 minutes at room temperature. This was followed by centrifuging at 2000×g at 4° C. for 30 minutes. Then 1000 ul of the resulting supernatant liquid is pipetetted from the sample and a determination of the amount of ^57 Co-B12 present is made. The amount of ^57 Co-B12 is indicative of the amount of natural B12 in the tested sample, with lesser amounts of ^57 Co-B12 being indicative of greater amounts of natural vitamin B12 in the sample.
(§3) (1) The values in tubes 3 and 4, the "blank" tubes without binder are averaged and subtracted from all other tubes starting with tube 5.
(§4) (2) The background radiation is subtracted from tubes 1 and 2 and these values are averaged.
(§5) (3) Tubes 5 and 6 are averaged. This value should be at least 15% below the average value for tubes 1 and 2 to insure that all of the binder is saturated in the presence of (^57 Co) B12 alone.
(§6) (4) Values for each tube beginning with tube 7 are divided by the average of tubes 5 and 6 to give values for "% trace binding."
(§7) (5) Percent trace binding for tubes 7-14 are used to obtain a standard curve. We plot % trace binding on the ordinate of logit-log paper versus pg vitamin B12 on the log scale.
(§8) (6) The amount of vitamin B12 in unknown samples is determined by interpolation from the standard curve or data of % trace binding versus pg vitamin B12. […]

[2] = target: T1, Human R protein (Human R) (Homo sapiens, UniProt P20061); test: Radioisotope dilution (RID) radiobinding assay for vitamin B12, Human R binder; assay type: binding; details: 500 pg added to human serum in the dark, 15 min incubation, standard extraction
T1 construct: from tissue; host or cells: human saliva
T1 sequence (P20061 24-433): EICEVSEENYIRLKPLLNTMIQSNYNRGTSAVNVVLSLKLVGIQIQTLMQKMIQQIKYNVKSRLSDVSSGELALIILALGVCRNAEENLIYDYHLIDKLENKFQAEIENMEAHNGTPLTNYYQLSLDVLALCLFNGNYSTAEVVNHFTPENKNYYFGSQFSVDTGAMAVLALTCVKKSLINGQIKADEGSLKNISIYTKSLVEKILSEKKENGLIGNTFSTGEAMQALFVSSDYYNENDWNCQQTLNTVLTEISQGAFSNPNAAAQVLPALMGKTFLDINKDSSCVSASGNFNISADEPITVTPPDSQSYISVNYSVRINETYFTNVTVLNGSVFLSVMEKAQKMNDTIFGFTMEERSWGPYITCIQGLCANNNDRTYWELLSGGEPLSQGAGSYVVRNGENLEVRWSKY
Experimental: as §1, §2, §3, §4, §5, §6, §7, §8

Chain of Human intrinsic factor (Human IF) (P27352 19-417): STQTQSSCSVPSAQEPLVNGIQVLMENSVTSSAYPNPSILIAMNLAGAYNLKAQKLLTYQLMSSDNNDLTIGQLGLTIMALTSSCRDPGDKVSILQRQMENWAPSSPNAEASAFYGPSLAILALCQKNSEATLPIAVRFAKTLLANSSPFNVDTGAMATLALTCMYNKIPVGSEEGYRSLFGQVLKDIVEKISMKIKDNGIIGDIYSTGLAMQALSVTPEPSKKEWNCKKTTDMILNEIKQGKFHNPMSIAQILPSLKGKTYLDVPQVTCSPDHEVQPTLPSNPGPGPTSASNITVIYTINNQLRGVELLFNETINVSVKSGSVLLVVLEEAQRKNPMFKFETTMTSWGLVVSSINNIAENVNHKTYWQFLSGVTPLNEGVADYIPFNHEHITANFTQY

| Compound | increase in the apparent amount of vitamin B12, RID with human IF protein [1] | increase in the apparent amount of vitamin B12, RID with human R protein [2] |
| --- | --- | --- |
| C/C1=C2/[N-]C([C@H](CC(N)=O)[C@@]2(C)CCC(=O)NC[C@@H](C)OP(=O)([O-])O[C@H]2[C@@H](O)[C@@H](n3cnc4cc(C)c(C)cc43)O[C@@H]2CO)[C@]2(C)N=C(/C(C)=C3N=C(/C=C4N=C1[C@@H](CCC(N)=O)C\4(C)C)[C@@H](CCC(N)=O)[C@]\3(C)CC(N)=O)[C@@H](CCC(N)=O)[C@]2(C)CC(N)=O.[CH2-][C@H]1O[C@@H](n2cnc3c(N)ncnc32)[C@@H](O)[C@@H]1O.[Co+3] [adenosyl-B12] | about 500 pg | about 500 pg |
| C/C1=C2/[N-][C@H]([C@H](CC(N)=O)[C@@]2(C)CCC(=O)NC[C@@H](C)OP(=O)([O-])O[C@H]2[C@@H](O)[C@@H](n3cnc4cc(C)c(C)cc43)O[C@@H]2CO)[C@]2(C)N=C(/C(C)=C3N=C(/C=C4N=C1[C@@H](CCC(N)=O)C\4(C)C)[C@@H](CCC(N)=O)[C@]\3(C)CC(N)=O)[C@@H](CCC(N)=O)[C@]2(C)CC(N)=O.[Co+3].[OH-] [OH-B12] | about 500 pg | about 500 pg |
| CH3 -B12 | about 500 pg | about 500 pg |
